Experiment [1] relates to Ba/F3 (EGFR^Del19/T790M/C797S) cells. Put plainly: Assay of activity on Ba/F3 (EGFR^Del19/T790M/C797S) cells (CTG, 72 h). The experiment is classed as cell-based. Here is the method:
(§1) 30 nL of the compound dilution was added to a 384-well plate by Echo (Labcyte, Echo550). […] 2. Data Analysis
(§2) The percent inhibition rate (% inhibition) was calculated by the following formula
(§3) [formula] • LUMcmpd: Luminescence value of assay compound. • LUMpositive: Average LUM value of positive drug (Brigatinib) with a concentration of 10 μM. • LUMvehicle: Average LUM value of negative control group without drug treatment.
(§4) The nonlinear regression curve (dose response-variable slope) between the value of inhibition rate (%) and the logarithm of compound concentration was fitted with graphpad prism 8.0, the effect dose curve of compound was drawn, and the IC50 value was calculated. Y=Bottom+(Top−Bottom)/(1+10^((LogIC50−X)*HillSlope)) • X-axis: logarithm of compound concentration; Y axis: inhibition rate (% inhibition). 3.

Experiment [2] concerns Ba/F3 (EGFR^L858R/T790M/C797S) cells. Put plainly: Assay of activity on Ba/F3 (EGFR^L858R/T790M/C797S) cells (CTG, 72 h). The experiment is classed as cell-based. The procedure:
as §1, §2, §3, §4

For experiment [3], the target named is T1, EGFR^L858R/T790M/C797S (Homo sapiens (Human), UniProt P00533, C797S/L858R/T790M). Put plainly: Assay of inhibitory activity on EGFR (HTRF kinase assay). Particulars: mutant EGFR kinase. Format: biochemical. The procedure: Formula of inhibition rate (%): […]
The nonlinear regression curve (dose response-variable slope) between the value of inhibition rate (%) and the logarithm of compound concentration was fitted with graphpad prism 8.0, the effect dose curve of compound was drawn, and IC50 value was calculated.

Experiment [4] concerns the target T1, EGFR^L858R/T790M/C797S. Put plainly: Assay of activity of compounds for inducing EGFR^L858R/T790M/C797S protein degradation. Format: cell-based. The conditions noted are these: Ba/F3 (EGFR^L858R/T790M/C797S) cells. The procedure:
In order to further explain the reason why the compounds of the present disclosure have inhibitory activity on Ba/F3 (EGFR^L858R/T790M/C797S) cells, representative compounds D3 was selected to study the mechanism of action of the compounds, and observe their effects on EGFR^L858R/T790M/C797S protein levels.
• Ba/F3 (EGFR^L858R/T790M/C797S) cells were cultured according to the culture conditions recommended by ATCC, and analyzed by index. • Complete medium: 1640 medium, 10% FBS, 1× glutamine, 1× penicillin-streptomycin. • Culture conditions: incubated at 37° C., 95% air, 5% CO2 incubator. (2) Compound Stock Solution:
10 mM stock solution in DMSO, stored at −20° C.
• The cells in the cell culture bottle were collected, and the cells with viability of >90% can be used in the assay. Cells were seeded in a 96-well plate with 40 μL cells, 1*10^5 cells/well. […] (6) Detection: • 1) 1 μg/mL of EGF activated cells were treated for 10 min; • 2) After the compound treatment, lysis buffer was added to lyse cells; 10 μL of cell lysate was transferred to a 384-well plate; in addition, 5 μL of acceptor mix was added to the 384-well plate, and shaken on a shaker for 1-2 min; • 3) 5 μL of donor mix was added to each well; the 384-well plate was sealed, shaken on a shaker for 1-2 min, left in the dark at room temperature overnight, and read with an enzyme labeling instrument. […]

As a reminder, the IC50 is the point on the concentration scale where inhibition reaches its midpoint.

Like-named read-outs stand apart in the source and are kept apart here.

Consider “3-(1-oxo-4-(4-(4-(((R,E)-1^1,2^6,7-trimethyl-3-oxo-5^2,5^3-dihydro-1^1H,5^1H-11-oxa-4-aza-5 (2,1)-benzo[d]imidazole-2 (2,4)-pyridine-1 (4,5)-pyrazolecyclododecan-5^6-yl)methyl)piperazin-1-yl)butyl)isoindol-2-yl)piperidine-2,6-dione [Compound D1]”, for which the figures for the IC50 in experiment [1] and in experiment [2] were 2.7 nM and 2.12 nM, respectively.
With “3-(1-oxo-4-(5-(4-(((R,E)-1^1,2^6,7-trimethyl-3-oxo-5^2,5^3-dihydro-1^1H,5^1H-11-oxa-4-aza-5 (2,1)-benzo[d]imidazole-2 (2,4)-pyridine-1 (4,5)-pyrazolecyclododecan-5^6-yl)methyl)piperazin-1-yl) pent-1-yn-1-yl)isoindol-2-yl)piperidine-2,6-dione [Compound D2]”, the values for the 50% inhibitory concentration (IC50) in experiment [1] and in experiment [2] were 3.89 nM and 3.96 nM, respectively.
Take `Cc1cc2cc(n1)-c1cnn(C)c1OCCC[C@@H](C)CN1/C(=N/C2=O)Nc2ccc(CN3CCN(CCCCCc4cccc5c4CN(C4CCC(=O)NC4=O)C5=O)CC3)cc21` (stereo partly drawn) [Compound D3, 3-(1-oxo-4-(5-(4-(((R,E)-1^1,2^6,7-trimethyl-3-oxo-5^2,5^3-dihydro-1^1H,5^1H-11-oxa-4-aza-5 (2,1)-benzo[d]imidazole-2 (2,4)-pyridine-1 (4,5)-pyrazolecyclododecan-5^6-yl)methyl)piperazin-1-yl)pentyl)isoindol-2-yl)piperidine-2,6-dione]: the half-maximal inhibitory concentration (IC50) was determined as 3.13 nM in experiment [1] (Ba/F3 EGFR-Del19/T790M/C797S); 2.88 nM in experiment [2] (Mus musculus, BaF3); 1.09 nM in experiment [3]. For the same compound, in experiment [4] (6 h, dose-dependent), the “effect on EGFR^L858R/T790M/C797S protein level (in words)” value is recorded as “significantly reduces”. For the same compound, in experiment [4] (6 h treatment, 0.01 nM to 1000 nM, read-out: DC50 (EGFR^L858R/T790M/C797S protein level)), the DC50 came out at 9.28 nM.
With `Cc1cc2cc(n1)-c1cnn(C)c1OCCC[C@@H](C)CN1/C(=N/C2=O)Cc2ccc(CN3CCN(CCCCCCc4cccc5c4CN(C4CCC(=O)NC4=O)C5=O)CC3)cc21` (stereo partly drawn) [Compound D4, 3-(1-oxo-4-(6-(4-(((R,E)-1^1,2^6,7-trimethyl-3-oxo-5^2,5^3-dihydro-1^1H,5^1H-11-oxa-4-aza-5 (2,1)-benzo[d]imidazole-2 (2,4)-pyridine-1 (4,5)-pyrazolecyclododecan-5^6-yl)methyl)piperazin-1-yl)hexyl)isoindol-2-yl)piperidine-2,6-dione], the IC50 in experiment [1] was found to be 4.41 nM; in experiment [2], 4.39 nM; in experiment [3], 10.1 nM.
In the case of `Cc1cc2cc(n1)-c1cnn(C)c1OCCC[C@@H](C)CN1/C(=N/C2=O)Nc2ccc(CN3CCN(CCCCCCCc4cccc5c4CN(C4CCC(=O)NC4=O)C5=O)CC3)cc21` (stereo partly drawn) [Compound D5, 3-(1-oxo-4-(7-(4-(((R,E)-1^1,2^6,7-trimethyl-3-oxo-5^2,5^3-dihydro-1^1H,5^1H-11-oxa-4-aza-5 (2,1)-benzo[d]imidazole-2 (2,4)-pyridine-1 (4,5)-pyrazolecyclododecan-5^6-yl)methyl)piperazin-1-yl)heptyl)isoindol-2-yl)piperidine-2,6-dione], the half-inhibitory concentration (IC50) in experiment [1] (Ba/F3 EGFR-Del19/T790M/C797S) is 10.7 nM; in experiment [2] (Mus musculus, BaF3) it was 11.6 nM; in experiment [3] it was 35.9 nM.
`C=CC(=O)Nc1cc(Nc2nccc(-c3cn(C)c4ccccc34)n2)c(OC)cc1N(C)CCN(C)C` [Osimertinib, reference compound]: the IC50 in experiment [1] (Ba/F3 EGFR-Del19/T790M/C797S) is over 1000 nM; in experiment [2] (Mus musculus, BaF3), over 1000 nM.

Source of the values: patent US12410192B2, “Compound for inhibiting and inducing degradation of EGFR kinase” (BEIJING TIDE PHARMACEUTICAL CO., LTD., priority 2019, dated 2025).
